The values that follow come from publication PMC4235344, “A single-component multidrug transporter of the major facilitator superfamily is part of a network that protects E scherichia coli from bile salt stress” (Molecular Microbiology, 2014).

The target in the assay is T1, MdtM (Escherichia coli, UniProt P39386).
T1 construct: full-length wild-type, pBAD/Myc-His A vector (pMdtM), homologously overexpressed in E. coli LMG194, purified in DDM
Put plainly: intrinsic Trp fluorescence quenching. It counts as binding.

T1 sequence (P39386 whole entry): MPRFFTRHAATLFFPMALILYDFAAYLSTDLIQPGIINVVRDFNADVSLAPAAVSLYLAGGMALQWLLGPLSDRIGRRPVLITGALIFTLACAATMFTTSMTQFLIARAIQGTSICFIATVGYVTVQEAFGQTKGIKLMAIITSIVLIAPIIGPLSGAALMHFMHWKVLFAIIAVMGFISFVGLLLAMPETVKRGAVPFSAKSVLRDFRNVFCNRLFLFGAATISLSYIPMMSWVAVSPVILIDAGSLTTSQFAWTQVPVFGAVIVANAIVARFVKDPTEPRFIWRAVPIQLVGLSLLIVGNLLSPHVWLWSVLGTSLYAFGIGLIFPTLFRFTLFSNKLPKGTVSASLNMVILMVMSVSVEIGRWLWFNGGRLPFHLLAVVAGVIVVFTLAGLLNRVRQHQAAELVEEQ

What is called Kd is the concentration at which binding is half-saturated. The low end stands for higher affinity, the high end for lower affinity. In turn, `C[C@H](CCC(=O)O)[C@H]1CC[C@H]2[C@@H]3[C@H](O)C[C@@H]4C[C@H](O)CC[C@]4(C)[C@H]3C[C@H](O)[C@]12C` [cholate] returned a Kd of 24 ± 6 µM.

In the case of `C[C@H](CCC(=O)O)[C@H]1CC[C@H]2[C@@H]3CC[C@@H]4C[C@H](O)CC[C@]4(C)[C@H]3C[C@H](O)[C@]12C` [deoxycholate], the Kd stood at 176 ± 20 µM.
